Data reported in patent US20050113295A1, “Carboxamide and amino derivatives and methods of their use” (priority 2003, published 2005).
Where a SMILES comes first, the peptide text is derived from it. [ ]: non-standard residue; d: D form. Phe(4-CONH2) = NC(=O)c1ccc(C[C@H](N)C(=O)O)cc1

Legend:
[1] = target: T1, cloned human δ opioid receptor (Homo sapiens, UniProt P41143); assay: Receptor-mediated [35S]GTPγS binding, δ opioid receptor; assay type: biochemical
T1 construct: expressed in transfected cells; host or cells: CHO cells
T1 sequence (P41143 whole entry): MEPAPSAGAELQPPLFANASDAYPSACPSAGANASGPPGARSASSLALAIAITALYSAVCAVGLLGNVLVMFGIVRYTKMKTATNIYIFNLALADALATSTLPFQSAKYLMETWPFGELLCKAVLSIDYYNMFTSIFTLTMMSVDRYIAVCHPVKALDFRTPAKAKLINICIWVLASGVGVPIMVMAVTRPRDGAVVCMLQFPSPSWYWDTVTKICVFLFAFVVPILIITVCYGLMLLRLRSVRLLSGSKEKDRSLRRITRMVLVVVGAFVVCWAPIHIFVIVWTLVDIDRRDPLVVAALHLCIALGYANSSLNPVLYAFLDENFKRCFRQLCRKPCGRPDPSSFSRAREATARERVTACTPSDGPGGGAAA
Method: The potency and efficacy of compounds at each of the receptors are assessed by modifications of the methods of Selley et al., 1997 and Traynor and Nahorski, 1995 using receptor-mediated [^35S]GTPγS binding in the same membrane preparations used to measure receptor binding. Assays are carried out in 96-well FlashPlates® (Perkin Elmer Life Sciences, Inc, Boston, Mass.). Membranes prepared from CHO cells expressing the appropriate receptor (50-100 μg of protein) are added to assay mixtures containing agonist with or without antagonists, […] [^35S]GTPγS (approx. 100,000 dpm), 3.0 μM GDP, 75 mM NaCl, 15 mM MgCl2, 1.0 mM ethylene glycol-bis(β-aminoethyl ether)-N,N,N′,N′-tetracetic acid, 1.1 mM dithiothreitol, 10 μg/mL leupeptin, 10 μg/mL pepstatin A, 200 μg/mL bacitracin, and 0.5 μg/mL aprotinin in 50 mM Tris-HCl buffer, pH 7.8. After incubation at room temperature for one hour, the plates are sealed, centrifuged at 800×g in a swinging bucket rotor for 5 minutes and bound radioactivity determined with a TopCount microplate scintillation counter (Packard Instrument Co., Meriden, Conn.).
EC50 values for agonists are determined from nonlinear regression fits of 8- or 12-point titration curves to the 4-parameter equation for a sigmoidal dose-response with a slope factor of 1.0 using GraphPad Prism version 3.00 for Windows (GraphPad Software, San Diego, Calif.).

[2] = target: T1, cloned human δ opioid receptor; assay: [3H]diprenorphine receptor binding, δ opioid receptor
Method: (§1) The potencies of the compounds of the Examples were determined by testing the ability of a range of concentrations of each compound to inhibit the binding of the non-selective opioid antagonist, [^3H]diprenorphine, to the cloned human μ, κ, and δ opioid receptors, expressed in separate cell lines. IC50 values were obtained by nonlinear analysis of the data using GraphPad Prism version 3.00 for Windows (GraphPad Software, San Diego). Ki values were obtained by Cheng-Prusoff corrections of IC50 values.
(§2) The receptor binding method (DeHaven and DeHaven-Hudkins, 1998) was a modification of the method of Raynor et al. (1994). […] The filters were rinsed 4 times with 1 mL of cold 50 mM Tris HCl, pH 7.8 and radioactivity remaining on the filters determined by scintillation spectroscopy. Nonspecific binding was determined by the minimum values of the titration curves and was confirmed by separate assay wells containing 10 μM naloxone. Ki values were determined by Cheng-Prusoff corrections of IC50 values derived from nonlinear regression fits of 12 point titration curves using GraphPad Prism® version 3.00 for Windows (GraphPad Software, San Diego, Calif.).
(§3) To determine the equilibrium dissociation constant for the inhibitors (Ki), radioligand bound (cpm) in the presence of various concentrations of test compounds was measured. […]

[3] = target: T2, cloned human κ opioid receptor (Homo sapiens, UniProt P41145); assay: [3H]diprenorphine receptor binding, κ opioid receptor; conditions: δ over κ
T2 construct: expressed in transfected cells; host or cells: CHO cells
T2 sequence (P41145 whole entry): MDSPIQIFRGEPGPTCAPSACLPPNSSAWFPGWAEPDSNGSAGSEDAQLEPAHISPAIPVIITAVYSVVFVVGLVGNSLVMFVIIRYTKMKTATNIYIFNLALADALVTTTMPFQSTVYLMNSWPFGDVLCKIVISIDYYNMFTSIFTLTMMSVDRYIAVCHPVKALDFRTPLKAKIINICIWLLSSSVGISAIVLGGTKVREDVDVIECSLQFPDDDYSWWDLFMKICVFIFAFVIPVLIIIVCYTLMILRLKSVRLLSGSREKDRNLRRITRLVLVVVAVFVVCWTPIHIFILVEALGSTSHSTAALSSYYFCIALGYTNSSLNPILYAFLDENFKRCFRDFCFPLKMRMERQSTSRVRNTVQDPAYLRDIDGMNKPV
Method: as §1, §2, §3

[4] = target: T3, cloned human μ opioid receptor (Homo sapiens, UniProt P35372); assay: [3H]diprenorphine receptor binding, μ opioid receptor; conditions: δ over μ
T3 construct: expressed in transfected cells; host or cells: CHO cells
T3 sequence (P35372 whole entry): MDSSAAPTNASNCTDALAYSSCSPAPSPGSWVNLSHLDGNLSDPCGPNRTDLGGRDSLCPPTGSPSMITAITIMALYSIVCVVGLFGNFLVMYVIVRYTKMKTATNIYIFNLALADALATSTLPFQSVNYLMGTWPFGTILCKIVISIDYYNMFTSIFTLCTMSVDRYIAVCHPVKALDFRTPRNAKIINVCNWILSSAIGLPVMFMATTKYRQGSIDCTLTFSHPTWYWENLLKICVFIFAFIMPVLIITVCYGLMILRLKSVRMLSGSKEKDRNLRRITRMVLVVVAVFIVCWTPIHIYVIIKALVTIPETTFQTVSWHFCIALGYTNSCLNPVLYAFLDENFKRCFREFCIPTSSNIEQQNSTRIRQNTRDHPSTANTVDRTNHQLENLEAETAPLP
Method: as §1, §2, §3

**Q.** `CC(C)C[C@H](NC(=O)[C@H](Cc1ccccc1)NC(=O)CNC(=O)CNC(=O)[C@@H](N)Cc1ccc(C(N)=O)cc1)C(N)=O` [Example 1, H-Cpa-Gly-Gly-Phe-Leu-NH2] (H-[Phe(4-CONH2)]GGFL-NH2) was tested. Which EC50 [1] did it give?
**A.** 74 nM

**Q.** What about the Ki [2] of the same compound?
**A.** 7 nM

**Q.** What about the “selectivity versus the κ opioid receptor” value [3] of the same compound?
**A.** greater than 10 fold

**Q.** What about the “selectivity versus the μ opioid receptor” value [4] of the same compound?
**A.** greater than 10 fold
